Results published in patent US20260248820A1, “USES OF HYDROGENATED CANNABIDIOL (H4CBD) AND ADVANCED METABOLIC SYNDROME” (The Regents of the University of California, priority 2022, published 2026).
Entries after “also recorded” stand apart in the source; their conditions may differ.

Columns and labels:
[1] = test system: Otsuka Long-Evans Tokushima Fatty (OLETF) rat; assay: Oral Glucose Tolerance Test (OGTT); type: in vivo
Protocol: Male lean Long Evan's Tokushima Otsuka (LETO) rats and obese Otsuka Long Evans Tokushima Fatty (OLETF) rats (Japan SLC Inc., Hamamatsu, Japan), both 14 weeks of age were assigned to the following groups (n=8/group): (1) vehicle-dosed LETO (LETO), (2) vehicle-dosed OLETF (OLETF), and (3) H4CBD-treated (200 mg/kg/day×4 weeks) OLETF (H4CBD). Rats were maintained in a specific pathogen-free, climate-controlled facility on a 12-hour light: dark cycle (07:00-19:00 and 19:00-07:00, respectively). All animals had free access to water and were fed rat chow (Teklad Global; fat 9.0%; carbohydrate 44.9%; protein 19.0%) ad libitum. Treatment intervention was initiated at 41 weeks of age. Phenotypic data (i.e. body mass, food intake) was collected daily for all animals.
Purified H4CBD (>99%) was suspended in food grade sesame oil and administered by oral gavage at a dose of 200 mg/kg.
Oral Glucose Tolerance Test (OGTT)—At approximately 45 weeks of age and following an overnight fast, oGTTs were performed as previously described. The positive incremental areas under the curve for glucose (AUCglucose) and insulin (AUCinsulin) were calculated by the trapezoidal method. Insulin resistance index (IRI) was calculated by AUCglucosex AUCinsulin/100, as previously described.

[2] = test system: proteins involved in insulin signaling (soleus); assay: Western blot of soleus insulin signaling proteins; type: in vivo, rat
Text: Western Blot—Soleus was used to measure proteins involved in insulin signaling. Densitometry values were quantified using ImageJ software (NIH) and normalized by correcting for densitometry values of representative protein bands below 37 kDa stained with Ponceau S. Results are reported as expression (%) compared to LETO.

[3] = Drug bioavailability detection in heparinized plasma (HPLC, MS/MS); type: in vivo, rat; conditions: peak area count <1500 considered negative, 200 mg/kg oral gavage
Protocol: Drug Bioavailability Detection—H4CBD bioavailability in heparinized plasma was determined via HPLC and MS/MS. In brief, 100 μL heparinized rat plasma was diluted with 100 μL Mass Spec Gold human serum (Golden West Diagnostics, MSG3200). The samples were analyzed using a WATERS TQS-Micro. The first quadrupole was set to 319.16 m/z and the third quadrupole isolated fragments of 181.02 m/z.
Drug Bioavailability Detection—H4CBD bioavailability in heparinized plasma was determined via HPLC and MS chromatography.

[4] = test system: Otsuka Long-Evans Tokushima Fatty (OLETF) rat; assay: Urinalysis (urine volume, total protein, creatinine, 3-methylhistidine); type: in vivo
Protocol: Body Mass (BM), Water, and Food Intake—BM was measured daily to calculate the appropriate drug and vehicle dose. Water, urine and food were measured once every 24 hours throughout the study.
Urinalysis—Urine was collected and thawed on ice to measure 3-methylhistidine (3MH; Abbexa; 257295) and creatinine (Invitrogen; EIACUN). Excretion was calculated for both by multiplying the 24-hr urine volume by the measured concentration (U×V=V*[x]), where x=creatinine or 3MH.

[5] = test system: lipase activity; assay: Lipase activity assay (adipose, liver, plasma); type: in vivo, rat
Protocol: Lipase Activity Assay—White adipose tissue (WAT) and liver was assayed for lipase activity.

[6] = test system: Collagen Type IV; assay: Liver Type IV collagen deposition (liver damage); type: in vivo, rat; conditions: collagen 71% higher in OLETF than LETO
Text: Type IV collagen deposition is an indicator of liver fibrosis, which is useful in the diagnosis of NAFLD in elderly individuals and models of NAFLD like OLETF.

[7] = test system: AT1 mRNA; assay: Real-time qPCR on cardiac tissue, AT1; type: in vivo, rat
Text: Real-Time qPCR—Gene expression was quantified by qPCR on cardiac tissue. Primers used were acquired from Integrated DNA Technologies and listed here 5′-3′: angiotensin MAS1 receptor (Mas1) Fw: […] (SEQ ID NO:1), Rv: […] (SEQ ID NO:2).

[8] = test system: Otsuka Long-Evans Tokushima Fatty (OLETF) rat; assay: Observation of treated animals during dosing window; type: in vivo; conditions: all treated animals, regardless of dose frequency relaxation

Compound: CCCCCc1cc(O)c(C2CC(C)CCC2C(C)C)c(O)c1 (stereo not shown) [H4CBD, 2-(2-isopropyl-5-methylcyclohexyl)-5-pentylbenzene-1,3-diol]
- Glucose response curve to OGTT ([1]; % baseline, p<0.01 OLETF vs. H4CBD): lowest
- Reduction of insulin resistance index (IRI) ([1]; IRI = AUCglucose x AUCinsulin/100, p<0.05 OLETF vs. H4CBD): 23%
- Time of blood glucose peak after glucose bolus ([1]; OGTT at about 45 weeks, overnight fast, treated and non-treated OLETF): 60 min
- Reduction of overall AUCglucose from OLETF ([1]; OGTT, p<0.001): 29%
- Plasma insulin response to OGTT ([1]; response abolished in OLETF): not rescued
- Translocated (membrane) GLUT4 ([2]; membrane fraction of skeletal muscle): no changes
- AMPK expression ([2]; soleus): No changes were detected
- Ratio of membrane to cytosolic GLUT4 ([2]; soleus): unchanged among the groups
- Reduction of PI3K expression compared to OLETF ([2]; soleus): 47%
- pAMPK expression ([2]; soleus): No changes were detected
- pAMPK/AMPK expression ([2]; soleus): No changes were detected
- pIR/IR ([2]; soleus): not changed
- Phosphorylation of the insulin receptor (pIR) ([2]; soleus protein expression): No changes were detected
- Reduction of Akt expression compared to OLETF ([2]; soleus, cytosolic, p<0.05): 32%
- Reduction of pAkt expression compared to OLETF ([2]; soleus, cytosolic, p<0.05): 58%
- Reduction of pAkt:Akt ratio compared to OLETF ([2]; soleus, p<0.01): 35%
- Increase of native insulin receptor (IR) expression over OLETF ([2]; soleus, p<0.05): 54%
- Cytosolic GLUT4 higher than OLETF ([2]; soleus, tended, p=0.06): 58%
- H4CBD in end of study plasma [3]: only treated animals received drug; also recorded: only detected in plasma from treated rats
- Urine excretion compared to vehicle control, first week ([4]; 24-hour urine): reduced
- Urine excretion volume compared to OLETF control, remainder of study ([4]; 24-hour urine, persisted through the remainder of the study): increased above OLETF control by Day 11
- Increase of 3MH excretion pre- vs. post-treatment ([4]; Day 0 vs Day 28): 9%
- 3MH excretion less than OLETF control ([4]; after 4 weeks): 17%
- Reduction of creatinine excretion compared to OLETF control ([4]; after 4 weeks): 42%
- Increase of creatinine excretion within H4CBD-treated group ([4]; after 4 weeks of treatment vs Day 0, non-significant): 10%
- 3MH/Cr higher than OLETF control ([4]; post-treatment (Day 28), p=0.07): 77%
- Reduction of proteinuria compared to OLETF control ([4]; total urinary protein excretion after 4 weeks): 25%
- Increase of 3MH/Cr after 4 weeks ([4]; within H4CBD treated OLETF, muscle wasting index): 4%
- Liver lipase activity (cytosolic, membrane) ([5]; LETO, OLETF, H4CBD): not different among groups
- Fasted plasma lipase activity ([5]; data not shown): not significantly different among groups
- Increase of adipose lipase activity compared to OLETF control ([5]; white adipose tissue, tended, p=0.094): 22%
- Liver collagen (Type IV) deposition [6]: no effect on collagen levels
- AT1 mRNA expression higher than control OLETF [7]: 49%
- Stool observation [8]: soft stool at multiple points of the dosing window
